Source: ChEMBL document CHEMBL1681636, “Exploring subtype selectivity and metabolic stability of a novel series of ligands for the benzodiazepine binding site of the GABAA receptor” (Bioorg Med Chem Lett, 2011)
Activity calls are given as the source filed them. The calls are words filed in the database; no cut-off is given here.

Columns and labels:
[1] = target: T1, Gamma-aminobutyric acid receptor subunit alpha-1 (Homo sapiens) (UniProt P14867); assay: Agonist activity at recombinant GABAA receptor subunit alpha-1 expressed in CHO cells at 3 uM by sensitive fluorometric read-out assay relative to midazolam; format: functional, cell-based
T1 sequence (whole entry): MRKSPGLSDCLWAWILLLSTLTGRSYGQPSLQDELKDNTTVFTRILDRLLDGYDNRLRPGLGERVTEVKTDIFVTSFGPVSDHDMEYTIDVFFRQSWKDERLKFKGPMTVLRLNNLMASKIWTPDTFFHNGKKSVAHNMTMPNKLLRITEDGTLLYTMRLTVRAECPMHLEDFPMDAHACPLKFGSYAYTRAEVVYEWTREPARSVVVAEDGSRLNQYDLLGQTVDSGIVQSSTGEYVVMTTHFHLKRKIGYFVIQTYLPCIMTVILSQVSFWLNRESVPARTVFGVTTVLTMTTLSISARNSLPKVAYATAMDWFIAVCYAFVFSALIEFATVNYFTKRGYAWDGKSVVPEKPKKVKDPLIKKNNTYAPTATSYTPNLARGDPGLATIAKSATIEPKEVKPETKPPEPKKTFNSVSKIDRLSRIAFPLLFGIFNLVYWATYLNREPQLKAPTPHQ

[2] = target: T2, Gamma-aminobutyric acid receptor subunit alpha-2 (Homo sapiens) (UniProt P47869); assay: Agonist activity at recombinant GABAA receptor subunit alpha-2 expressed in CHO cells at 3 uM by sensitive fluorometric read-out assay relative to midazolam; format: functional, cell-based
T2 sequence (whole entry): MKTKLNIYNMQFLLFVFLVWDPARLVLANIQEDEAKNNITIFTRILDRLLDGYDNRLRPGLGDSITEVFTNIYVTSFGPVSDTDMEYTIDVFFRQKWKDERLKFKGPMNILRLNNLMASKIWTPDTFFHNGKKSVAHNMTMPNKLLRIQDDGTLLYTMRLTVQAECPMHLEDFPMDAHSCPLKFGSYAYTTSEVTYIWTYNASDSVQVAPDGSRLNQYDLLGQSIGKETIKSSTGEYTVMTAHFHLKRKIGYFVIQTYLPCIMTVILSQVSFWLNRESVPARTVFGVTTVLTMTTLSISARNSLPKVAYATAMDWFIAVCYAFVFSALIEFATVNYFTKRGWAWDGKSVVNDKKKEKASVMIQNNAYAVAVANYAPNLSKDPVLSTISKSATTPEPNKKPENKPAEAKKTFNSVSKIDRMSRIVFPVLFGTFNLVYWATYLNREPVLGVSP

[3] = target: T3, Gamma-aminobutyric acid receptor subunit alpha-1 (Homo sapiens, UniProt P14867); assay: Displacement of [3H]flumazenil from GABAA receptor subunit alpha-1 expressed in CHO cells; format: cell-based
T3 sequence (P14867 whole entry): T1 sequence (whole entry)

[4] = target: T4, Gamma-aminobutyric acid receptor subunit alpha-2 (Homo sapiens, UniProt P47869); assay: Displacement of [3H]flumazenil from GABAA receptor subunit alpha-2 expressed in CHO cells; format: cell-based
T4 sequence (P47869 whole entry): T2 sequence (whole entry)

[5] = Intrinsic clearance in rat liver microsomes at 5 uM after 60 mins; format: ADME, Microsome
[6] = target: T1, Gamma-aminobutyric acid receptor subunit alpha-1 (Homo sapiens); assay: Agonist activity at recombinant GABAA receptor subunit alpha-1 expressed in CHO cells at 1 uM by sensitive fluorometric read-out assay relative to midazolam; format: functional, cell-based
[7] = target: T2, Gamma-aminobutyric acid receptor subunit alpha-2 (Homo sapiens); assay: Agonist activity at recombinant GABAA receptor subunit alpha-2 expressed in CHO cells at 1 uM by sensitive fluorometric read-out assay relative to midazolam; format: functional, cell-based

| Compound | Efficacy [1] | Efficacy [2] | IC50 [3] [nM] | IC50 [4] [nM] | microsomal CLint at 5 µM [5] [µL/min/mg] | Efficacy [6] [%] | Efficacy [7] [%] |
| --- | --- | --- | --- | --- | --- | --- | --- |
| Clc1ccc(-n2nc3c(cnc4ccc(-n5ccnc5)cc43)c2OCC2CC2)cc1 | 80% | 35% | 134 | 2110 |  |  |  |
| Clc1ccc(COc2c3cnc4c(c3nn2-c2ccc(Cl)cc2)CCCC4)cc1 | 20% | 42% | 157 | 177 |  |  |  |
| Clc1ccc(-n2nc3c4c(ncc3c2OCC2CC2)CCCC4)cc1 | 18% | 64% | 94 | 185 |  |  |  |
| Clc1ccc(-n2nc3c4c(ncc3c2OCc2cccc(Cl)c2)CCCC4)cc1 | 38% | 50% |  |  |  |  |  |
| Clc1ccc(-n2nc3c(cnc4ccccc43)c2OCC2CC2)cc1 | 37% | 36% | 74 | 472 |  |  |  |
| Clc1ccc(-n2nc3c4c(ncc3c2OCc2ccccc2Cl)CCCCC4)cc1 | 114% | 96% | 242 | 605 |  |  |  |
| FC(F)(F)c1ccccc1COc1c2cnc3c(c2nn1-c1ccc(Cl)cc1)CCCC3 | 84% | 94% |  |  |  |  |  |
| Clc1ccc(-n2nc3c4c(ncc3c2OCc2ccccc2Cl)CCCC4)cc1 | 25% | 50% | 46 | 271 | 128 |  |  |
| O=C1C2C=Nc3ccccc3C2=NN1c1ccc(Cl)cc1 (centres undefined) [CGS-9896] |  |  | 1 | 4 |  | 38 | 47 |
| Fc1ccccc1-n1nc2c(cnc3ccccc32)c1OCc1ccccc1Cl | -8% | 17% | 1 | 2 |  |  |  |

Continued, in another order:

| Efficacy [1] | Efficacy [2] | IC50 [3] [nM] | IC50 [4] [nM] | microsomal CLint at 5 µM [5] [µL/min/mg] | Compound | Efficacy [6] [%] | Efficacy [7] [%] |
| --- | --- | --- | --- | --- | --- | --- | --- |
| inactive | inactive | > 3000 | > 3000 |  | Clc1ccc(-n2nc3c4c(ncc3c2Oc2ccccc2Cl)CCCC4)cc1 |  |  |
| 13% | 22% | 64 | 265 |  | Clc1ccc(-n2nc3c(cnc4ccccc43)c2OCc2ccccc2Cl)cc1 |  |  |
| 31% | 83% | 64 | 154 |  | Fc1ccccc1COc1c2cnc3c(c2nn1-c1ccc(Cl)cc1)CCCC3 |  |  |
| -15% | 19% | 50 | 155 |  | Clc1ccccc1COc1c2cnc3ccccc3c2nn1-c1ccc2c(c1)OCO2 |  |  |
| 4% | 32% |  | 461 |  | Clc1ccc(-n2nc3c4c(ncc3c2OCc2ccccc2Cl)CCOC4)cc1 |  |  |
| 24% | 41% | 50 | 57 |  | Fc1ccc(COc2c3cnc4c(c3nn2-c2ccc(Cl)cc2)CCCC4)cc1 |  |  |
| 4% | 23% | 67 | 213 |  | CC1(C)CCc2ncc3c(OCc4ccccc4Cl)n(-c4ccc(Cl)cc4)nc3c2C1 |  |  |
